# Measurements published in patent publication US20120270237A9, “METHODS FOR THE IDENTIFICATION OF KINASE INTERACTING MOLECULES AND FOR THE PURIFICATION OF KINASE PROTEINS” (Cellzone AG, priority 2009, published 2012).
# Experiments:
# Assay in all cases: Kinobeads competition binding, HL60 cell lysate
# Set-up in all cases: endogenous in cells; host or cells: HL60
# Settings in all cases: 10 μM free compound
# MSK2 = MSK2 (Homo sapiens, UniProt O75676)
# Procedure: (§1) To one aliquot of cell lysate 10 μM of the free compound (FIG. 3, CZC31326) was added and allowed to bind to proteins in the lysate. Then the affinity matrix with the immobilized compound (Example 1) was added to capture proteins that were not interacting with the previously added free compound. Beads were separated from the lysate and bead bound proteins were eluted in SDS sample buffer and subsequently separated by SDS-Polyacrylamide gel electrophoresis (FIG. 4). Suitable gel bands were cut out and subjected to in-gel proteolytic digestion with trypsin. The second lysate aliquot was processed identically, however no free compound was added (DMSO solvent control). Peptides originating from samples 1 and 2 were labeled with iTRAQ reagents (iTRAQ 114 and iTRAQ 117) and the combined samples were analyzed with a nano-flow liquid chromatography system coupled online to a tandem mass spectrometer (LC-MS/MS) experiment followed by iTRAQ reporter ion quantification in the MS/MS spectra (Ross et al., 2004. Mol. Cell. Proteomics 3(12):1154-1169). Further experimental protocols can be found in WO2006/134056 and a previous publication (Bantscheff et al., 2007. Nature Biotechnology 25, 1035-1044). Sepharose-beads with the immobilized compound (100 μl beads per pull-down experiment) were equilibrated in lysis buffer and incubated with a cell lysate sample containing 50 mg of protein on an end-over-end shaker (Roto Shake Genie, Scientific Industries Inc.) for 2 hours at 4° C. Beads were collected, transferred to Mobicol-columns (MoBiTech 10055) and washed with 10 ml lysis buffer containing 0.4% NP40 detergent, followed by 5 ml lysis buffer containing 0.2% detergent. To elute bound proteins, 60 μl 2×SDS sample buffer was added to the column. The column was incubated for 30 minutes at 50° C. and the eluate was transferred to a siliconized microfuge tube by centrifugation. Proteins were then alkylated with 108 mM iodoacetamid. Proteins were then separated by SDS-Polyacrylamide electrophoresis (SDS-PAGE). The peptide extracts of samples treated with 10 μM of free compound (CZC31326) and the solvent control (0.5% DMSO) were treated with different variants of the isobaric tagging reagent (iTRAQ Reagents Multiplex Kit, part number 4352135, Applied Biosystems, Foster City, Calif., USA). The iTRAQ reagents are a set of multiplexed, amine-specific, stable isotope reagents that can label peptides on amino groups in up to four different biological samples enabling simultaneous identification and quantitation of peptides. The iTRAQ reagents were used according to instructions provided by the manufacturer. The samples were resuspended in 10 μl 50 mM TEAB solution, pH 8.5 and 10 μl ethanol were added. The iTRAQ reagent was dissolved in 120 μl ethanol and 10 μl of reagent solution were added to the sample. The labeling reaction was performed at room temperature for one hour on a horizontal shaker and stopped by adding 5 μl of 100 mM TEAB and 100 mM glycine in water. The two labeled sampled were then combined, dried in a vacuum centrifuge and resuspended in 10 μl of 0.1% formic acid in water. Relative protein quantitation was performed using peak areas of iTRAQ reporter ion signals essentially as described in an earlier publication (Bantscheff et al., 2007. Nature Biotechnology 25, 1035-1044).
# TYK2 = TYK2 (Homo sapiens, UniProt P29597)
# Sequence of TYK2 (P29597 whole entry): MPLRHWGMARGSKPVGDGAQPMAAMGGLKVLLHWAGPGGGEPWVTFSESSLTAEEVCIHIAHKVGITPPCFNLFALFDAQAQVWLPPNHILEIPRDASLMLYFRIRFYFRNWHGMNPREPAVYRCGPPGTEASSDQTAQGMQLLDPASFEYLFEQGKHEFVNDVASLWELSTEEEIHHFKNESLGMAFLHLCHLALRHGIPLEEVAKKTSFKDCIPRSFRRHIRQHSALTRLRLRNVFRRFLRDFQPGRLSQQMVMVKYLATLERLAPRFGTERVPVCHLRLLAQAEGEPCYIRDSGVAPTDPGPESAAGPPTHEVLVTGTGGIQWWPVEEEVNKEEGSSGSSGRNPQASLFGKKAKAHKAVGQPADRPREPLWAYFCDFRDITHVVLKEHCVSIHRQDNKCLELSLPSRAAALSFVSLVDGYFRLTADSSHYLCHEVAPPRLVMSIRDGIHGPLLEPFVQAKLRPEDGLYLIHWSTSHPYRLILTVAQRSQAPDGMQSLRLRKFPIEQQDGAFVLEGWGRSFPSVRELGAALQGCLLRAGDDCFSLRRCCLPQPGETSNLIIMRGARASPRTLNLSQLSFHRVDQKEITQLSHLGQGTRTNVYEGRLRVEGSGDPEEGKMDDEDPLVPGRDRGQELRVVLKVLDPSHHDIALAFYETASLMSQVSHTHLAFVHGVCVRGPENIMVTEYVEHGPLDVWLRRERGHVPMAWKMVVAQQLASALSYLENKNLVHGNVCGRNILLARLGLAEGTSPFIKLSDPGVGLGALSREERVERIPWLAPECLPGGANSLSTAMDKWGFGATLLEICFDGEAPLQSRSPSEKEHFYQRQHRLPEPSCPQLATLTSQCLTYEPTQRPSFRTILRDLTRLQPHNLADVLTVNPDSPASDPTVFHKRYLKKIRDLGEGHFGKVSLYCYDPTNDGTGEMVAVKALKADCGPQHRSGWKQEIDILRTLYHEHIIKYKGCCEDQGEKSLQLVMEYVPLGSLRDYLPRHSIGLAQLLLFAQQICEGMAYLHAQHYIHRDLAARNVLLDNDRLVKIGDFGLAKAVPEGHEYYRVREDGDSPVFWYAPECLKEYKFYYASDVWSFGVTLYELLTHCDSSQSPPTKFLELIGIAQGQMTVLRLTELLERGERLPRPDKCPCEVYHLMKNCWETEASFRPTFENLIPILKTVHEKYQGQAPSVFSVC
# Procedure: as §1
# IRAK4 = target: T1, IRAK4 (Homo sapiens, UniProt Q9NWZ3)
# T1 sequence (Q9NWZ3 1-460): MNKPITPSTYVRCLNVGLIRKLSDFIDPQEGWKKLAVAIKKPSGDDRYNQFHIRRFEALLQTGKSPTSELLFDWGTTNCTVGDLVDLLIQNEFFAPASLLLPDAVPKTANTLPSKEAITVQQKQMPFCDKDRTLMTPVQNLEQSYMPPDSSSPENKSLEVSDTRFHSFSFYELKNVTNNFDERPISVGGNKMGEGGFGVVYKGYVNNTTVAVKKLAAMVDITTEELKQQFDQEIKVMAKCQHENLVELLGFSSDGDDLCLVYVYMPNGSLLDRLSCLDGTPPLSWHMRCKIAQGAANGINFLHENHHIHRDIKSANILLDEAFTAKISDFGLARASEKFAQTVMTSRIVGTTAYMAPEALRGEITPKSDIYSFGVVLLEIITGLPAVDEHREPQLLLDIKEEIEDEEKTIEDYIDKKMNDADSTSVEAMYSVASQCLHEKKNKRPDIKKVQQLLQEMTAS
# Procedure: as §1
# HIPK2 = HIPK2 (Homo sapiens, UniProt Q9H2X6)
# Sequence of HIPK2 (Q9H2X6 whole entry): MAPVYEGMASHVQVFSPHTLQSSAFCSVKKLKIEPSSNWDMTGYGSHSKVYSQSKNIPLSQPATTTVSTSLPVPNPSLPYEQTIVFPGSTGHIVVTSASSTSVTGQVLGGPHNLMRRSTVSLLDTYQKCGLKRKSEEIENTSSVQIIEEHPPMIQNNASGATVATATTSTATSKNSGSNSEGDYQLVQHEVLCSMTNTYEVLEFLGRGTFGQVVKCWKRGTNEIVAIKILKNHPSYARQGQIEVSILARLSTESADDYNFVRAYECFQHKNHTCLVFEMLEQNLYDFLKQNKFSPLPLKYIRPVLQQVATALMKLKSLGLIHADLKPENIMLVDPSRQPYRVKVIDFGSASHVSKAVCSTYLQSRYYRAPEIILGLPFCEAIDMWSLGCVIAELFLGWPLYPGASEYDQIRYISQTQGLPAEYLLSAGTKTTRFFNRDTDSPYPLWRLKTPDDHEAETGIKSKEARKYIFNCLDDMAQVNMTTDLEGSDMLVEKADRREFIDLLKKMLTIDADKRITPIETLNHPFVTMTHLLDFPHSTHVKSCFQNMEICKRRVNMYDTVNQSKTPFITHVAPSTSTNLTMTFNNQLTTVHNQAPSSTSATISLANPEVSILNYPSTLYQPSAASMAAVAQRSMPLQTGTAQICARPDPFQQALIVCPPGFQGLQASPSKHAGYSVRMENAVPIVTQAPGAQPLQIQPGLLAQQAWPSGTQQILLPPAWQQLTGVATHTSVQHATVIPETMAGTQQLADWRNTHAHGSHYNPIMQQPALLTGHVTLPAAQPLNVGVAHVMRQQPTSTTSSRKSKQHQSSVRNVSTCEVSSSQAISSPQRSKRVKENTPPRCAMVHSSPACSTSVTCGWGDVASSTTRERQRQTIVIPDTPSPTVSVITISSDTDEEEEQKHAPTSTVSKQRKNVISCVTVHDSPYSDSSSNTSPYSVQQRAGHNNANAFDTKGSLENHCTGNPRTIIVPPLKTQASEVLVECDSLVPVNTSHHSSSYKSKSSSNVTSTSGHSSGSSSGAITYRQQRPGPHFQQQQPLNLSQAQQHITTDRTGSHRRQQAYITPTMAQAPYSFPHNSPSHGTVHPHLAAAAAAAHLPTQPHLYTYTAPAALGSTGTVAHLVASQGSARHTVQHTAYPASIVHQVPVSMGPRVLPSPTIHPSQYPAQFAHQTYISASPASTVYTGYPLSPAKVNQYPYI
# Procedure: as §1
# IRAK1 = IRAK1 (Homo sapiens, UniProt P51617)
# Sequence of IRAK1 (P51617 whole entry): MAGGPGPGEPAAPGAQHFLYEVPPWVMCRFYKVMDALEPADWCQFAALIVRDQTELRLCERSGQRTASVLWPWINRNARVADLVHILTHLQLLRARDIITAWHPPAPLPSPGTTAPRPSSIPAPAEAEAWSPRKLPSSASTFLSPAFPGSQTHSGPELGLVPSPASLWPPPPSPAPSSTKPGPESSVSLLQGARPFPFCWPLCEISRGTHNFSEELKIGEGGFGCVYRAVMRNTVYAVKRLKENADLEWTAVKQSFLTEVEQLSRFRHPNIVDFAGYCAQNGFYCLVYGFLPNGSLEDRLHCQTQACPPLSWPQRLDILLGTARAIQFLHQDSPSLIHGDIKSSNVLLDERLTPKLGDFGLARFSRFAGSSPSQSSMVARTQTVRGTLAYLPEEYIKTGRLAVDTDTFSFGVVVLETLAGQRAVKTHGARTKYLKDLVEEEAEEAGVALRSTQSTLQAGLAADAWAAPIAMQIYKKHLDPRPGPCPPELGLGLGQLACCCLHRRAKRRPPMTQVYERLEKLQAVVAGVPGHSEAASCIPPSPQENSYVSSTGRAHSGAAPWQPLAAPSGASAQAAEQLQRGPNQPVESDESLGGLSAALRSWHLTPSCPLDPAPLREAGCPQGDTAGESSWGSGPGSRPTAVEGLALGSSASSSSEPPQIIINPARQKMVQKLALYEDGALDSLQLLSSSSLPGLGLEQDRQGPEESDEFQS
# Procedure: as §1
# HPK1 = HPK1 (Homo sapiens, UniProt Q92918)
# Sequence of HPK1 (Q92918 whole entry): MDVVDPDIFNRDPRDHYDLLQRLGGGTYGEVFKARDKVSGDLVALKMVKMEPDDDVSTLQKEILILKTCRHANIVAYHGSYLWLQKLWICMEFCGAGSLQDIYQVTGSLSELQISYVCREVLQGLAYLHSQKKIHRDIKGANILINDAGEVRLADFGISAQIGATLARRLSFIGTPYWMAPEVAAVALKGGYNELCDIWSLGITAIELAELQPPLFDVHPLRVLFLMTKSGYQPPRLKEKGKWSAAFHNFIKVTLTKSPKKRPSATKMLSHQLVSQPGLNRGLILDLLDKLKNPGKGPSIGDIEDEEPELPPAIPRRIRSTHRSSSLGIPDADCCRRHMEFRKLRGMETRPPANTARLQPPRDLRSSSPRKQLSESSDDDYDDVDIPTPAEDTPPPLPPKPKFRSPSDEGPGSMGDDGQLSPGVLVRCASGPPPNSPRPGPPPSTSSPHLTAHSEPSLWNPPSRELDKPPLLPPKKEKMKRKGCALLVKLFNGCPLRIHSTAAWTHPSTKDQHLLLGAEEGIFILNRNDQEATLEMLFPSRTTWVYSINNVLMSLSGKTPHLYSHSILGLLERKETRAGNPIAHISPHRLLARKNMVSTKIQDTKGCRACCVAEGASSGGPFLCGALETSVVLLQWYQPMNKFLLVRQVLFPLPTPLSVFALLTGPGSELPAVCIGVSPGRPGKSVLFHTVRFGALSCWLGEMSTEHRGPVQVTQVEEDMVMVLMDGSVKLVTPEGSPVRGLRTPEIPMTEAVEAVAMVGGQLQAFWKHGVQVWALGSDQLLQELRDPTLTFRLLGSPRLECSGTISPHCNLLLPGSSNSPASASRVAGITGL
# Procedure: as §1
# Sequence of MSK2 (O75676 whole entry): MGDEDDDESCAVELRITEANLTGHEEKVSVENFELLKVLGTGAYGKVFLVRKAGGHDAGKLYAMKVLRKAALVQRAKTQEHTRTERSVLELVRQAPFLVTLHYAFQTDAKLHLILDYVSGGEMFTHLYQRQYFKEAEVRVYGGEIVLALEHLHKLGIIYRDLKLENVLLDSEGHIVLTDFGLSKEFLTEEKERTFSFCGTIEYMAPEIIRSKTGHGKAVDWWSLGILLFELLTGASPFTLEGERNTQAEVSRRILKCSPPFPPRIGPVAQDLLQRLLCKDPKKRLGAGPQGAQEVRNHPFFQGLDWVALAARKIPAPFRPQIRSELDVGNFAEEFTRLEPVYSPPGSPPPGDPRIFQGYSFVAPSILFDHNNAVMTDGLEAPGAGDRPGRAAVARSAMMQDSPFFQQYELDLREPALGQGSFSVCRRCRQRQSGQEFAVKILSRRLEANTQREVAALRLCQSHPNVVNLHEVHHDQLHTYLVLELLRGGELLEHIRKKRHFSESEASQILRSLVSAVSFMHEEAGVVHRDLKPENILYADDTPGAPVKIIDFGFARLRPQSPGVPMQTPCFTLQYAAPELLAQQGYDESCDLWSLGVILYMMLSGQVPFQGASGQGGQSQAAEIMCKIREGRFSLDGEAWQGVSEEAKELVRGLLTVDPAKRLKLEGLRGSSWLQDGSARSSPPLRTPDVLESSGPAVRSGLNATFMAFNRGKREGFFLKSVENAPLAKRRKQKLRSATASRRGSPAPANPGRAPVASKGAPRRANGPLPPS
compound,measurement,setting,value
"CS(=O)(=O)Nc1ccccc1Nc1nc(Nc2cccc(OCCN)c2)ncc1Cl [CZC31326, N-(2-(2-(3-(2-aminoethoxy)phenylamino)-5-chloropyrimidin-4-ylamino)phenyl)methanesulfonamide]",inhibition at 10 µM,MSK2,96.8%
same,Competition %,TYK2,97.1%
same,Competition %,IRAK4,97.5%
same,inhibition at 10 µM,HIPK2,94.4%
same,inhibition at 10 µM,IRAK1,94.9%
same,inhibition at 10 µM,HPK1,97.7%
